Experiments:
[1] = 298.15 K; for surface tension liquid-gas: Drop volume; for mass density: 101.33 kPa, Liquid
[2] = refractive index (Na D-line) (dimensionless); conditions: 298.15 K; 101.33 kPa; Liquid; Standard Abbe refractometry
[3] = xn = mol fraction of the nth substance listed; conditions: 298.15 K; for surface tension liquid-gas: Drop volume; for mass density: 101.3 kPa, Liquid
[4] = refractive index (Na D-line) (dimensionless); xn = mol fraction of the nth substance listed; conditions: 298.15 K, 101.3 kPa, Liquid, Standard Abbe refractometry

CCCCCCO [hexan-1-ol]
Conditions | mass density [kg/m3] | refractive index | surface tension liquid-gas [mN/m]
[1] | 815.15 | – | 25.73
[2] | – | 1.4159 | –

CCCCCO [pentan-1-ol]
Conditions | mass density [kg/m3] | refractive index | surface tension liquid-gas [mN/m]
[1] | 810.83 | – | 24.97
[2] | – | 1.408 | –

CCCCCCCO [heptan-1-ol]
Conditions | mass density [kg/m3] | refractive index | surface tension liquid-gas [mN/m]
[1] | 818.75 | – | 26.47
[2] | – | 1.4224 | –

CCCCCCCO [heptan-1-ol] + CCCCCCCC
Conditions | refractive index, [4] | surface tension liquid-gas, [3] [mN/m]
x2 = 0.0616 | 1.4205 | –
x2 = 0.0995 | 1.4194 | 25.35
x2 = 0.1699 | 1.4174 | 24.68
x2 = 0.1767 | 1.417 | 24.63
x2 = 0.2957 | 1.4136 | 23.72
x2 = 0.3286 | 1.4126 | 23.52
x2 = 0.353 | 1.4119 | 23.37
x2 = 0.4567 | 1.4091 | 22.79
x2 = 0.4918 | 1.4081 | 22.65
x2 = 0.5587 | 1.4062 | 22.38
x2 = 0.5956 | 1.4051 | 22.24
x2 = 0.6564 | 1.4036 | 22.04
x2 = 0.6626 | – | 22.01
x2 = 0.6629 | 1.4034 | –
x2 = 0.783 | 1.4002 | 21.68
x2 = 0.7981 | 1.3999 | 21.63
x2 = 0.8409 | 1.3988 | 21.53
x2 = 0.9111 | 1.3971 | 21.38
x2 = 0.958 | – | 21.28

CCCCCCCCO [octan-1-ol]
Conditions | mass density [kg/m3] | refractive index | surface tension liquid-gas [mN/m]
[1] | 821.63 | – | 27.13
[2] | – | 1.4274 | –

CCCCO [butan-1-ol]
Conditions | mass density [kg/m3] | refractive index | surface tension liquid-gas [mN/m]
[1] | 805.76 | – | 24.02
[2] | – | 1.3973 | –

CCCCCCCC [octane] + CCO
Conditions | mass density [kg/m3] | refractive index | surface tension liquid-gas [mN/m]
[3], x1 = 0.0131 | 781.56 | – | –
[3], x1 = 0.0523 | 771.81 | – | –
[3], x1 = 0.0686 | – | – | 21.37
[3], x1 = 0.0788 | 766.05 | – | –
[3], x1 = 0.1132 | – | – | 21.2
[3], x1 = 0.1433 | 758.82 | – | –
[3], x1 = 0.1721 | – | – | 21.06
[3], x1 = 0.1881 | 754.27 | – | –
[3], x1 = 0.2228 | 747.52 | – | –
[3], x1 = 0.2616 | 742.94 | – | –
[3], x1 = 0.2867 | – | – | 20.88
[3], x1 = 0.3011 | 738.29 | – | –
[3], x1 = 0.3571 | – | – | 20.82
[3], x1 = 0.3725 | 734.06 | – | –
[3], x1 = 0.3985 | 727.44 | – | –
[3], x1 = 0.4536 | 725.27 | – | –
[3], x1 = 0.4544 | – | – | 20.77
[3], x1 = 0.4898 | – | – | 20.77
[3], x1 = 0.5175 | 721.13 | – | –
[3], x1 = 0.5401 | – | – | 20.78
[3], x1 = 0.5832 | 716.94 | – | –
[3], x1 = 0.5865 | – | – | 20.79
[3], x1 = 0.6299 | – | – | 20.8
[3], x1 = 0.6457 | – | – | 20.81
[3], x1 = 0.669 | – | – | 20.84
[3], x1 = 0.6709 | 713.14 | – | –
[3], x1 = 0.7226 | 708.8 | – | –
[3], x1 = 0.765 | – | – | 20.89
[3], x1 = 0.8041 | – | – | 20.92
[3], x1 = 0.8191 | – | – | 20.94
[3], x1 = 0.8201 | 706.53 | – | –
[3], x1 = 0.8707 | 702.91 | – | –
[3], x1 = 0.9095 | – | – | 21.01
[3], x1 = 0.9212 | – | – | 21.05
[4], x1 = 0.0686 | – | 1.3641 | –
[4], x1 = 0.1132 | – | 1.367 | –
[4], x1 = 0.1721 | – | 1.3705 | –
[4], x1 = 0.1834 | – | 1.3711 | –
[4], x1 = 0.2867 | – | 1.3762 | –
[4], x1 = 0.35 | – | 1.3789 | –
[4], x1 = 0.3571 | – | 1.3792 | –
[4], x1 = 0.4544 | – | 1.3827 | –
[4], x1 = 0.4898 | – | 1.3839 | –
[4], x1 = 0.5401 | – | 1.3853 | –
[4], x1 = 0.5865 | – | 1.3866 | –
[4], x1 = 0.6299 | – | 1.3877 | –
[4], x1 = 0.6457 | – | 1.388 | –
[4], x1 = 0.669 | – | 1.3885 | –
[4], x1 = 0.765 | – | 1.3906 | –
[4], x1 = 0.8191 | – | 1.3917 | –
[4], x1 = 0.9095 | – | 1.3934 | –
[4], x1 = 0.9212 | – | 1.3939 | –

CCCCCO [pentan-1-ol] + CCCCCCCC
Conditions | refractive index, [4] | surface tension liquid-gas, [3] [mN/m]
x2 = 0.0189 | 1.4075 | –
x2 = 0.115 | 1.4058 | 23.88
x2 = 0.1459 | 1.4052 | 23.6
x2 = 0.1629 | 1.4049 | 23.5
x2 = 0.2727 | 1.403 | 22.8
x2 = 0.3271 | 1.4022 | 22.54
x2 = 0.4586 | 1.4003 | 22.06
x2 = 0.4927 | 1.3999 | 21.96
x2 = 0.5188 | 1.3996 | 21.91
x2 = 0.5951 | 1.3986 | 21.75
x2 = 0.655 | 1.3979 | 21.65
x2 = 0.6713 | 1.3977 | 21.63
x2 = 0.7676 | 1.3968 | 21.5
x2 = 0.7932 | 1.3966 | 21.46
x2 = 0.834 | 1.3963 | 21.41
x2 = 0.8869 | 1.3958 | 21.35
x2 = 0.9457 | 1.3955 | 21.27

CCCCCCCC [octane] + CCCO
Conditions | refractive index, [4] | surface tension liquid-gas, [3] [mN/m]
x1 = 0.0237 | 1.3835 | –
x1 = 0.123 | 1.3852 | 22.38
x1 = 0.1859 | 1.3862 | 22.05
x1 = 0.2349 | 1.3869 | 21.81
x1 = 0.29 | 1.3877 | 21.66
x1 = 0.3454 | 1.3884 | 21.53
x1 = 0.3547 | 1.3885 | 21.51
x1 = 0.4493 | 1.3896 | 21.36
x1 = 0.5154 | 1.3903 | 21.3
x1 = 0.5218 | 1.3904 | 21.29
x1 = 0.6224 | 1.3914 | 21.22
x1 = 0.6308 | 1.3915 | 21.21
x1 = 0.6938 | 1.3921 | 21.21
x1 = 0.7592 | 1.3927 | 21.17
x1 = 0.7884 | 1.393 | 21.17
x1 = 0.8449 | 1.3935 | 21.16
x1 = 0.8918 | 1.394 | 21.16
x1 = 0.9245 | 1.3943 | 21.16

CCO [ethanol]
Conditions | mass density [kg/m3] | refractive index | surface tension liquid-gas [mN/m]
[1] | 785.15 | – | 21.74
[2] | – | 1.3593 | –

CCCO [propan-1-ol]
Conditions | mass density [kg/m3] | refractive index | surface tension liquid-gas [mN/m]
[1] | 799.62 | – | 23.39
[2] | – | 1.383 | –

CCCCCCCC [octane] + CCCCO
Conditions | refractive index, [4] | surface tension liquid-gas, [3] [mN/m]
x1 = 0.0453 | 1.397 | 23.65
x1 = 0.113 | 1.3966 | 23.15
x1 = 0.1636 | 1.3964 | 22.84
x1 = 0.1788 | 1.3963 | 22.74
x1 = 0.2956 | 1.3957 | 22.2
x1 = 0.3281 | – | 22.08
x1 = 0.3526 | 1.3955 | 21.99
x1 = 0.4467 | 1.3952 | 21.73
x1 = 0.4857 | 1.3951 | 21.65
x1 = 0.5747 | 1.3949 | 21.49
x1 = 0.5886 | – | 21.49
x1 = 0.6326 | 1.3948 | 21.42
x1 = 0.6918 | 1.3948 | 21.36
x1 = 0.777 | 1.3948 | 21.29
x1 = 0.8167 | 1.3948 | 21.28
x1 = 0.865 | 1.3948 | 21.24
x1 = 0.9376 | 1.3949 | 21.21

CCCCCCO [hexan-1-ol] + CCCCCCCC
Conditions | refractive index, [4] | surface tension liquid-gas, [3] [mN/m]
x2 = 0.0515 | 1.4147 | 25.19
x2 = 0.0944 | 1.4136 | 24.79
x2 = 0.16 | 1.4119 | 24.22
x2 = 0.1837 | 1.4113 | 24.03
x2 = 0.2785 | 1.4091 | 23.38
x2 = 0.3309 | – | 23.08
x2 = 0.3311 | 1.4079 | –
x2 = 0.4619 | 1.4049 | 22.48
x2 = 0.4987 | 1.404 | 22.32
x2 = 0.5049 | 1.4039 | 22.3
x2 = 0.5984 | 1.402 | 22.02
x2 = 0.6717 | 1.4007 | 21.83
x2 = 0.7019 | 1.4 | 21.74
x2 = 0.7478 | 1.3992 | 21.65
x2 = 0.7794 | 1.3987 | 21.58
x2 = 0.8504 | 1.3974 | 21.45
x2 = 0.895 | 1.3966 | 21.38
x2 = 0.959 | 1.3956 | 21.25

CCCCCCCCO [octan-1-ol] + CCCCCCCC
Conditions | refractive index, [4] | surface tension liquid-gas, [3] [mN/m]
x2 = 0.0641 | 1.4257 | 26.39
x2 = 0.12 | – | 25.83
x2 = 0.1378 | 1.4231 | 25.59
x2 = 0.1501 | – | 25.5
x2 = 0.2923 | 1.418 | 24.29
x2 = 0.3168 | 1.4172 | 24.11
x2 = 0.3554 | 1.4159 | 23.84
x2 = 0.4526 | 1.4128 | 23.23
x2 = 0.495 | 1.4114 | 23
x2 = 0.5413 | 1.41 | 22.76
x2 = 0.6269 | 1.4072 | 22.38
x2 = 0.6566 | 1.4062 | 22.24
x2 = 0.6897 | 1.4051 | 22.12
x2 = 0.7547 | 1.403 | 21.88
x2 = 0.8114 | 1.4012 | 21.7
x2 = 0.8617 | 1.3995 | 21.55
x2 = 0.8832 | 1.3989 | 21.51
x2 = 0.9635 | 1.3961 | –

CCCCCCCC [octane]
Conditions | mass density [kg/m3] | refractive index | surface tension liquid-gas [mN/m]
[1] | 698.5 | – | 21.17
[2] | – | 1.3951 | –
